Source: the NIST ThermoML archive (doi:10.1021/je700260f)
± gives the expanded uncertainty stated by the source.

Details: 293.15 K, Liquid, Vibrating tube method

FC(C(F)(F)F)C(F)(F)F [1,1,1,2,3,3,3-heptafluoropropane]
Details | mass density [kg/m3]
19492 kPa | 1505.8 ± 1.6
19631 kPa | 1506.6 ± 1.6
19665 kPa | 1506.5 ± 1.6
19699 kPa | 1506.6 ± 1.6
19732 kPa | 1506.9 ± 1.6
19762 kPa | 1506.9 ± 1.6
19806 kPa | 1507.1 ± 1.6
19844 kPa | 1507.3 ± 1.6
19868 kPa | 1507.3 ± 1.6
19906 kPa | 1507.5 ± 1.6
19940 kPa | 1507.7 ± 1.6
19974 kPa | 1507.8 ± 1.6
20007 kPa | 1507.9 ± 1.6
20047 kPa | 1508 ± 1.6
20080 kPa | 1508.1 ± 1.6
20109 kPa | 1508.3 ± 1.6
20152 kPa | 1508.4 ± 1.6
20190 kPa | 1508.6 ± 1.6
20215 kPa | 1508.7 ± 1.6
20258 kPa | 1508.8 ± 1.6
20302 kPa | 1508.9 ± 1.6
20335 kPa | 1509.2 ± 1.6
20375 kPa | 1509.2 ± 1.6
20404 kPa | 1509.3 ± 1.6
20434 kPa | 1509.5 ± 1.6
20478 kPa | 1509.6 ± 1.6
20517 kPa | 1509.9 ± 1.6
20546 kPa | 1510 ± 1.6
20591 kPa | 1510.1 ± 1.6
20630 kPa | 1510.1 ± 1.6
20659 kPa | 1510.3 ± 1.6
20702 kPa | 1510.5 ± 1.6
20732 kPa | 1510.6 ± 1.6
20761 kPa | 1510.6 ± 1.6
20802 kPa | 1510.8 ± 1.6
20843 kPa | 1511 ± 1.6
20873 kPa | 1511 ± 1.6
20907 kPa | 1511.2 ± 1.6
20982 kPa | 1511.5 ± 1.6
21017 kPa | 1511.6 ± 1.6
21048 kPa | 1511.8 ± 1.6
21094 kPa | 1511.9 ± 1.6
21134 kPa | 1512 ± 1.6
21164 kPa | 1512.1 ± 1.6
21209 kPa | 1512.3 ± 1.6
21245 kPa | 1512.4 ± 1.6
21279 kPa | 1512.5 ± 1.6
21314 kPa | 1512.7 ± 1.6
21359 kPa | 1512.8 ± 1.6
21389 kPa | 1513 ± 1.6
21458 kPa | 1513.1 ± 1.6
21488 kPa | 1513.2 ± 1.6
21669 kPa | 1513.9 ± 1.6
21699 kPa | 1513.9 ± 1.6
21739 kPa | 1514.2 ± 1.6
21927 kPa | 1514.8 ± 1.6
21967 kPa | 1515 ± 1.6
22009 kPa | 1515.2 ± 1.6
22034 kPa | 1515.3 ± 1.6
22076 kPa | 1515.4 ± 1.6
22122 kPa | 1515.5 ± 1.6
22152 kPa | 1515.7 ± 1.6
22194 kPa | 1515.8 ± 1.6
22230 kPa | 1515.9 ± 1.6
22261 kPa | 1516.2 ± 1.6
22291 kPa | 1516.2 ± 1.6
22322 kPa | 1516.3 ± 1.6
22358 kPa | 1516.3 ± 1.6
22404 kPa | 1516.5 ± 1.7
22440 kPa | 1516.7 ± 1.7
22476 kPa | 1516.8 ± 1.7
22522 kPa | 1516.9 ± 1.7
22548 kPa | 1517.1 ± 1.7
22584 kPa | 1517.1 ± 1.7
22625 kPa | 1517.4 ± 1.7
22661 kPa | 1517.5 ± 1.7
22702 kPa | 1517.6 ± 1.7
22744 kPa | 1517.7 ± 1.7
22781 kPa | 1517.9 ± 1.7
22813 kPa | 1518 ± 1.7
22849 kPa | 1518.2 ± 1.7
22886 kPa | 1518.3 ± 1.7
22923 kPa | 1518.4 ± 1.7
22959 kPa | 1518.6 ± 1.7
23001 kPa | 1518.7 ± 1.7
23042 kPa | 1518.8 ± 1.7
23072 kPa | 1518.8 ± 1.7
23118 kPa | 1519 ± 1.7
23154 kPa | 1519.1 ± 1.7
23191 kPa | 1519.3 ± 1.7
23228 kPa | 1519.5 ± 1.7
23271 kPa | 1519.7 ± 1.7
23308 kPa | 1519.7 ± 1.7
23350 kPa | 1519.8 ± 1.7
23392 kPa | 1520 ± 1.7
23424 kPa | 1520.1 ± 1.7
23466 kPa | 1520.2 ± 1.7
23513 kPa | 1520.5 ± 1.7
23540 kPa | 1520.6 ± 1.7
23577 kPa | 1520.5 ± 1.7
23615 kPa | 1520.7 ± 1.7
23648 kPa | 1520.9 ± 1.7
23692 kPa | 1521 ± 1.7
23735 kPa | 1521.1 ± 1.7
23815 kPa | 1521.5 ± 1.7
23852 kPa | 1521.6 ± 1.7
23883 kPa | 1521.6 ± 1.7
23925 kPa | 1521.8 ± 1.7
23962 kPa | 1521.9 ± 1.7
23986 kPa | 1522.1 ± 1.7
24019 kPa | 1522.1 ± 1.7
24048 kPa | 1522.3 ± 1.7
24087 kPa | 1522.4 ± 1.7
24120 kPa | 1522.5 ± 1.7
24149 kPa | 1522.6 ± 1.7
24187 kPa | 1522.7 ± 1.7
24229 kPa | 1522.8 ± 1.7
24263 kPa | 1523 ± 1.7
24297 kPa | 1523 ± 1.7
24326 kPa | 1523.2 ± 1.7
24354 kPa | 1523.2 ± 1.7
24393 kPa | 1523.3 ± 1.7
24422 kPa | 1523.3 ± 1.7
24451 kPa | 1523.5 ± 1.7
24485 kPa | 1523.6 ± 1.7
24524 kPa | 1523.8 ± 1.7
24553 kPa | 1523.9 ± 1.7
24587 kPa | 1524.1 ± 1.7
24630 kPa | 1524.2 ± 1.7
24659 kPa | 1524.3 ± 1.7
24698 kPa | 1524.5 ± 1.7
24728 kPa | 1524.6 ± 1.7
24757 kPa | 1524.6 ± 1.7
24786 kPa | 1524.7 ± 1.7
24816 kPa | 1524.7 ± 1.7
24851 kPa | 1524.9 ± 1.7
24886 kPa | 1525 ± 1.7
24920 kPa | 1525.2 ± 1.7
24949 kPa | 1525.2 ± 1.7
24991 kPa | 1525.5 ± 1.7
25030 kPa | 1525.6 ± 1.7
25059 kPa | 1525.6 ± 1.7
25097 kPa | 1525.8 ± 1.7
25136 kPa | 1525.9 ± 1.7
25165 kPa | 1526.1 ± 1.7
25199 kPa | 1526.1 ± 1.7
25229 kPa | 1526.1 ± 1.7
25268 kPa | 1526.4 ± 1.7
25297 kPa | 1526.4 ± 1.7
25326 kPa | 1526.6 ± 1.7
25360 kPa | 1526.8 ± 1.7
25393 kPa | 1526.6 ± 1.7
25438 kPa | 1526.9 ± 1.7
25466 kPa | 1527 ± 1.7
25496 kPa | 1527.2 ± 1.7
25530 kPa | 1527.2 ± 1.7
25569 kPa | 1527.4 ± 1.7
25594 kPa | 1527.4 ± 1.7
25639 kPa | 1527.4 ± 1.7
25678 kPa | 1527.7 ± 1.7
25708 kPa | 1527.9 ± 1.7
25747 kPa | 1527.9 ± 1.7
25791 kPa | 1528.1 ± 1.7
25816 kPa | 1528.2 ± 1.7
25845 kPa | 1528.1 ± 1.7
25889 kPa | 1528.4 ± 1.7
25923 kPa | 1528.5 ± 1.7
25958 kPa | 1528.6 ± 1.7
25994 kPa | 1528.8 ± 1.7
26024 kPa | 1528.9 ± 1.7
26068 kPa | 1529 ± 1.7
26112 kPa | 1529.1 ± 1.7
26141 kPa | 1529.3 ± 1.7
26181 kPa | 1529.4 ± 1.7
26220 kPa | 1529.5 ± 1.7
26250 kPa | 1529.5 ± 1.7
26284 kPa | 1529.7 ± 1.7
26319 kPa | 1529.8 ± 1.7
26349 kPa | 1529.9 ± 1.7
26391 kPa | 1530.1 ± 1.7
26430 kPa | 1530.1 ± 1.7
26455 kPa | 1530.3 ± 1.7
26504 kPa | 1530.5 ± 1.7
26534 kPa | 1530.6 ± 1.7
26570 kPa | 1530.6 ± 1.7
26610 kPa | 1530.7 ± 1.7
26646 kPa | 1530.8 ± 1.7
26682 kPa | 1530.9 ± 1.7
26717 kPa | 1531.1 ± 1.7
26753 kPa | 1531.3 ± 1.7
26784 kPa | 1531.3 ± 1.7
26824 kPa | 1531.4 ± 1.7
26864 kPa | 1531.6 ± 1.7
26899 kPa | 1531.6 ± 1.7
26939 kPa | 1531.8 ± 1.7
26979 kPa | 1532 ± 1.7
27009 kPa | 1532.1 ± 1.7
27045 kPa | 1532.2 ± 1.7
27080 kPa | 1532.3 ± 1.7
27115 kPa | 1532.4 ± 1.7
27151 kPa | 1532.6 ± 1.7
27188 kPa | 1532.6 ± 1.7
27224 kPa | 1532.8 ± 1.7
27265 kPa | 1532.9 ± 1.7
27302 kPa | 1533.1 ± 1.7
